In the supplement of paper PMC12463676, “Small-molecule dissolution of stress granules by redox modulation benefits ALS models” (Nature Chemical Biology, 2025):

Columns and labels:
[1] = compound: NC(=O)CCCCC1CCSS1 [lipoamide]; test: thermal stability z-score vs DMSO; higher = more thermally stabilized by treatment; conditions: HeLa, lipoamide concentration 100 µM
Method: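 Cellular thermal proteome profiling in HeLa cells. Cells were treated with 100 µM lipoamide for 1 h, with or without 1 mM arsenate for a further 1 h, then heated to ten temperatures (37-66.3 °C), and soluble protein was quantified by TMT mass spectrometry relative to 0.1% DMSO controls. The thermal stability score (sum of log2 fold changes minus the abundance score) was transformed to a z-score; mean of n = 3 experiments.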

[2] = compound: O=[As]([O-])(O)O.[K+] [potassium arsenate]; test: as above; conditions: HeLa; arsenate concentration 1 mM
Method: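 Cellular thermal proteome profiling in HeLa cells treated with 1 mM arsenate for 1 h (DMSO pretreatment), heated to ten temperatures (37-66.3 °C). Soluble protein was quantified by TMT mass spectrometry relative to DMSO controls; the thermal stability score was transformed to a z-score; mean of n = 3 experiments.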

[3] = arsenate co-treatment: 1 mM arsenate 1 h
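Note: each temperature applied for 3 min, abundance score taken as mean log2 fold change at the two lowest temperatures, z-score obtained by mean subtraction and division by SD.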

UniProt Q8N5I2, sequence (Q8N5I2 whole entry): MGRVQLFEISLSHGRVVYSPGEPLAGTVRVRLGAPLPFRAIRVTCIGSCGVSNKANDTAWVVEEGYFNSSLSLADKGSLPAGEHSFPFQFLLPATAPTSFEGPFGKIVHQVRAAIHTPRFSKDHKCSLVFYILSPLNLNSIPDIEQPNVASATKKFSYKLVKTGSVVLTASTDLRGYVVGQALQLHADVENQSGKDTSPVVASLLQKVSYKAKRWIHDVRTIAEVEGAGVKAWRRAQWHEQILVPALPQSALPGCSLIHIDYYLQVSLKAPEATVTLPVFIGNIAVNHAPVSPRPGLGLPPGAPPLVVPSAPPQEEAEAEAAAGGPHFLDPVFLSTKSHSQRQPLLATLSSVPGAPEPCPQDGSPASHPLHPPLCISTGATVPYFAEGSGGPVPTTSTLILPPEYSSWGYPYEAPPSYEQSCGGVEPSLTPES
UniProt Q13315, sequence (Q13315 whole entry): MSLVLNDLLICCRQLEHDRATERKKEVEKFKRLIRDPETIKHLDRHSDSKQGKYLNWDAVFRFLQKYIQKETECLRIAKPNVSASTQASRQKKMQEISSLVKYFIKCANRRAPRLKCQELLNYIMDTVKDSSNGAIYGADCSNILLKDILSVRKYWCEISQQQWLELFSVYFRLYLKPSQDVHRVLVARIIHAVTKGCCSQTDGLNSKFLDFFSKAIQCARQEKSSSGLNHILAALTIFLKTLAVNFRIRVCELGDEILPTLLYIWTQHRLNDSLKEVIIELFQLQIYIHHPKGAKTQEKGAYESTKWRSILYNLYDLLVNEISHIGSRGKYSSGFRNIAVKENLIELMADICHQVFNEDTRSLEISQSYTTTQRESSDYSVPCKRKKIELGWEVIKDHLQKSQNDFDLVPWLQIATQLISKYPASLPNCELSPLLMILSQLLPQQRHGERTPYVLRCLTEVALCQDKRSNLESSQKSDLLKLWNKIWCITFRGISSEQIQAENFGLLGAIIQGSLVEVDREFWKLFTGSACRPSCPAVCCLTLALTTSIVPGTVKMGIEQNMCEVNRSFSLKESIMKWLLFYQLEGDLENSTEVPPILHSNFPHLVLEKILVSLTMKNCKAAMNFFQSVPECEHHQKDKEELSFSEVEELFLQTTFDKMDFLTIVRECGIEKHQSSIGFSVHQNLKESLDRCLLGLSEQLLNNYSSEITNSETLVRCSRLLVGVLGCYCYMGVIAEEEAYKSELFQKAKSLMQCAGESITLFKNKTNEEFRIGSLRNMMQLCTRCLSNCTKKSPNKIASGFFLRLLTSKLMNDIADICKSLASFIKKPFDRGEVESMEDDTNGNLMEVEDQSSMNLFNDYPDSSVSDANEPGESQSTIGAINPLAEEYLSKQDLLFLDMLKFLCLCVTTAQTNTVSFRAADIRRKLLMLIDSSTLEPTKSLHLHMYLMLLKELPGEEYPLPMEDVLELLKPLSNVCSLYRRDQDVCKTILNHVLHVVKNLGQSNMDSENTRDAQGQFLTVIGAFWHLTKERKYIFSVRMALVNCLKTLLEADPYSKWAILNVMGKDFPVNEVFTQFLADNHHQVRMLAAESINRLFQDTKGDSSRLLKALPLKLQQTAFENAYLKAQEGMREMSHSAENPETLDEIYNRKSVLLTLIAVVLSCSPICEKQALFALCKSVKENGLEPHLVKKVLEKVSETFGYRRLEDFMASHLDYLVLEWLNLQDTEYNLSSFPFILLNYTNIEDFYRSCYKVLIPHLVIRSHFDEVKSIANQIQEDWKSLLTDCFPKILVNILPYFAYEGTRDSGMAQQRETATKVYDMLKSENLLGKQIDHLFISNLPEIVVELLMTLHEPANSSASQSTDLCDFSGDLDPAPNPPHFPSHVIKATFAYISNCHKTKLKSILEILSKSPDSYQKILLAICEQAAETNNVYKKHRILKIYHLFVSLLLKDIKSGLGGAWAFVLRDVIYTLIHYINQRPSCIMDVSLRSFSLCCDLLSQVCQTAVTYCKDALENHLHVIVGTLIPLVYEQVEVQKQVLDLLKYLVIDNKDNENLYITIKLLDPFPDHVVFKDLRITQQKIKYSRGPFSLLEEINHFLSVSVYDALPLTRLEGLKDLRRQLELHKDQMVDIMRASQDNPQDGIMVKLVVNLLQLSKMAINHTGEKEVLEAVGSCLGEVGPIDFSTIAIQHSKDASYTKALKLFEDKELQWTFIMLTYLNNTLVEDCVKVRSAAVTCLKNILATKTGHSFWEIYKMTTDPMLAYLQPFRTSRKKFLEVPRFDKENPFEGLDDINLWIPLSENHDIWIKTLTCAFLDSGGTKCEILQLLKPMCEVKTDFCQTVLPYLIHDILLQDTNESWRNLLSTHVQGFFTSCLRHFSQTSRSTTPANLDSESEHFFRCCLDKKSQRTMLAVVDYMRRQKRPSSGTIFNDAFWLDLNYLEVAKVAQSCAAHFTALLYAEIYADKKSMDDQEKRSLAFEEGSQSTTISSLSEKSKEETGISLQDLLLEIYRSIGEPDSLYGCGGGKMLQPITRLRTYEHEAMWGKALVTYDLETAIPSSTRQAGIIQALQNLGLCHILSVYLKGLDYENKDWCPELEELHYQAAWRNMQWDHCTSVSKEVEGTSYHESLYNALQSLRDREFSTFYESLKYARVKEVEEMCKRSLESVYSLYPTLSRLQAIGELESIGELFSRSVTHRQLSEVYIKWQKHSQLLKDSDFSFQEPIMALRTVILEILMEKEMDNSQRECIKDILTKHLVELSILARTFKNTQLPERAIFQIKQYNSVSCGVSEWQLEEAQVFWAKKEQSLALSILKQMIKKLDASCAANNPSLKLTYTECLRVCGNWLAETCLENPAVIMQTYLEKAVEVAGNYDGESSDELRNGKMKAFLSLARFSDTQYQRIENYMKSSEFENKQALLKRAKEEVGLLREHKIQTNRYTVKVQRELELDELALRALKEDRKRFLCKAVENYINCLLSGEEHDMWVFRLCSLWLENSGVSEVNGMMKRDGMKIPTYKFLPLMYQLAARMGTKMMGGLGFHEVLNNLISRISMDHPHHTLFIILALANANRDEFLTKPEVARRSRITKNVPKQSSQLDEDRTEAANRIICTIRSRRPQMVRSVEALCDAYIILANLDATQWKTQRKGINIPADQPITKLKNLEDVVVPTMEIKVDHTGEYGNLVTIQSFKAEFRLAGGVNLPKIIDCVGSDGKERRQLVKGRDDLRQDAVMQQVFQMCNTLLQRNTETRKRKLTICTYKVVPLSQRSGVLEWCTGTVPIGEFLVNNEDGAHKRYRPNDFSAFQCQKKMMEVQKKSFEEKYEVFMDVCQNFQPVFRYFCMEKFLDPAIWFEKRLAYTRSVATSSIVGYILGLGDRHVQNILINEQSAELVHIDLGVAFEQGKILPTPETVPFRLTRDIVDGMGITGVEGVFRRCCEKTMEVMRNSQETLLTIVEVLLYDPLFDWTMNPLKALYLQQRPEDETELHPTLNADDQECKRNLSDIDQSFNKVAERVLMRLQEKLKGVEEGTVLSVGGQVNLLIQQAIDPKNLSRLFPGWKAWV
UniProt Q96DX5, sequence (Q96DX5 whole entry): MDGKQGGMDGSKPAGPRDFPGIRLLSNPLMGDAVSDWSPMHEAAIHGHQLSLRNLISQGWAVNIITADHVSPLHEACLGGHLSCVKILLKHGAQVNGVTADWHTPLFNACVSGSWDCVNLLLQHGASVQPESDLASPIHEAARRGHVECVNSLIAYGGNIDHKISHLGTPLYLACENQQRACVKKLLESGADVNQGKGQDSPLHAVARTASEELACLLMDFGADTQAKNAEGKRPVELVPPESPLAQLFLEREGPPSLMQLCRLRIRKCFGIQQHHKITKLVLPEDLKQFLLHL
UniProt P18850, sequence (P18850 whole entry): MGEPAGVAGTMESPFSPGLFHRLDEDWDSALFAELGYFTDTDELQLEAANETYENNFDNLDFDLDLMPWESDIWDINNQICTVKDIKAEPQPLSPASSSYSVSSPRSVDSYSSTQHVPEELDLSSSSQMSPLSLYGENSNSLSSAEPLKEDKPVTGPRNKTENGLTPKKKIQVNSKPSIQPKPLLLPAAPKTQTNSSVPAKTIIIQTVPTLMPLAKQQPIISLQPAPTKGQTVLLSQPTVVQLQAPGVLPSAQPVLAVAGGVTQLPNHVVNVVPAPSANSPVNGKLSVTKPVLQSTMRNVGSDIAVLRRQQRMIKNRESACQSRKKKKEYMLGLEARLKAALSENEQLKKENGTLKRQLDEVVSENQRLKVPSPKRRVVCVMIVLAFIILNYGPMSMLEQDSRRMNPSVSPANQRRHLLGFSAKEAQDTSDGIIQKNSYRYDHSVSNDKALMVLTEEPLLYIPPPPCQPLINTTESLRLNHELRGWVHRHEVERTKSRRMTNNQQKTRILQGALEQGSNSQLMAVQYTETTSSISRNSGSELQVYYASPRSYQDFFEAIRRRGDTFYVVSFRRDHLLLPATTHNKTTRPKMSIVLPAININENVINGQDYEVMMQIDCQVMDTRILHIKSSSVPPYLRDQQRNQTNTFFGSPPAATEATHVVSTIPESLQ
UniProt Q9NT62, sequence (Q9NT62 whole entry): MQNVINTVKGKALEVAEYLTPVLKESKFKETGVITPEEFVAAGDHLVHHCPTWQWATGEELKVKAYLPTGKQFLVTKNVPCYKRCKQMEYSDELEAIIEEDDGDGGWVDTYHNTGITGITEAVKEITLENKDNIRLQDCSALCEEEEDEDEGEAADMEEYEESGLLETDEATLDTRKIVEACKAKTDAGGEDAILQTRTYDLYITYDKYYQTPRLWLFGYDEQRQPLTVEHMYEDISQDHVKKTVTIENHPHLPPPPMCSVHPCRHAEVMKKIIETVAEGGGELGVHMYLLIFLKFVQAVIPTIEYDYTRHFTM
UniProt P56211, sequence (P56211 whole entry): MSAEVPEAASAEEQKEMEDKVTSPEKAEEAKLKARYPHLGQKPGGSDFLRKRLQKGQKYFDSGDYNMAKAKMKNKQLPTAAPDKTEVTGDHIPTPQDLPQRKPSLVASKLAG
UniProt P30049, sequence (P30049 whole entry): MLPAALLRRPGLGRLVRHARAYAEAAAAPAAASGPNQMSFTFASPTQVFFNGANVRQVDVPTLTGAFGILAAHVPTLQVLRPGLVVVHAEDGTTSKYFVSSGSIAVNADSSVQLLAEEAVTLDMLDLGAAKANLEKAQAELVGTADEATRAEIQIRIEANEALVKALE

Row | Target | thermal stability z-score [1, 3] | thermal stability z-score ([1]; arsenate co-treatment: none) | thermal stability z-score [2]
1 | ARMT1 (UniProt Q9H993) | 0.0878 | 0.255 | 0.195
2 | ARNT (UniProt P27540) | 0.605 | 0.794 | 0.561
3 | ARPC1A (UniProt Q92747) | -0.106 | 0.0846 | -0.466
4 | ARPC1B (UniProt O15143) | -0.0473 | -0.175 | -0.0161
5 | ARPC2 (UniProt O15144) | -0.317 | -0.205 | -1.15
6 | ARPC3 (UniProt O15145) | 0.0284 | 0.0195 | -0.254
7 | ARPC4 (UniProt P59998) | 1.12 | 0.913 | 0.369
8 | ARPC5 (UniProt O15511) | 0.9 | 0.484 | -0.246
9 | ARPC5L (UniProt Q9BPX5) | 0.0991 | -0.00985 | -0.302
10 | ARPP19 (UniProt P56211) | 0.84 | 0.316 | -0.359
11 | ARRB1 (UniProt P49407) | 0.197 | 0.543 | 0.262
12 | ARRB2 (UniProt P32121) | -0.153 | -1.1 | 0.28
13 | ARRDC1 (UniProt Q8N5I2) | -0.245 | 0.802 | 0.121
14 | ARSA (UniProt P15289) | 0.254 | 0.195 | -0.0376
15 | ARV1 (UniProt Q9H2C2) | 0.292 | 0.473 | -0.894
16 | ASAH1 (UniProt Q13510) | -0.162 | -0.738 | 0.065
17 | ASAP1 (UniProt Q9ULH1) | 0.0666 | -0.0222 | -0.0654
18 | ASAP2 (UniProt O43150) | -0.641 | -0.527 | -0.394
19 | ASB6 (UniProt Q9NWX5) | 0.441 | -0.288 | 0.506
20 | ASB9 (UniProt Q96DX5) | 0.263 | 0.826 | -0.202
21 | ASCC1 (UniProt Q8N9N2) | -1.01 | -0.215 | -0.708
22 | ASCC2 (UniProt Q9H1I8) | -0.0905 | 0.388 | 1.51
23 | ASCC3 (UniProt Q8N3C0) | -0.289 | -0.167 | -0.277
24 | ASF1A (UniProt Q9Y294) | -0.132 | -0.202 | -0.103

Row | Target | thermal stability z-score [1, 3] | thermal stability z-score ([1]; arsenate co-treatment: none) | thermal stability z-score [2]
25 | ASF1B (UniProt Q9NVP2) | -0.0916 | -0.0291 | -0.169
26 | ASH2L (UniProt Q9UBL3) | 0.566 | -0.319 | -1.84
27 | ASL (UniProt P04424) | 0.153 | -0.627 | -0.112
28 | ASMTL (UniProt O95671) | 1.09 | 1.31 | -0.959
29 | ASNA1 (UniProt O43681) | -0.234 | -0.285 | -0.178
30 | ASNS (UniProt P08243) | 1.69 | 0.131 | -0.303
31 | ASNSD1 (UniProt Q9NWL6) | -0.942 | -0.0608 | -0.734
32 | ASPH (UniProt Q12797) | -2.27 | -2.04 | 0.014
33 | ASPHD1 (UniProt Q5U4P2) | -0.334 | 0.214 | -0.276
34 | ASPSCR1 (UniProt Q9BZE9) | 0.207 | -0.218 | -0.304
35 | ASS1 (UniProt P00966) | -0.416 | 0.107 | -1.34
36 | ASUN (UniProt Q9NVM9) | 0.368 | 0.404 | 0.906
37 | ATAD1 (UniProt Q8NBU5) | 0.216 | 0.454 | 0.641
38 | ATAD3A (UniProt Q9NVI7) | -0.137 | 0.337 | 0.401
39 | ATAD3B (UniProt Q5T9A4) | -0.338 | -0.0604 | 0.607
40 | ATE1 (UniProt O95260) | 0.315 | -0.209 | -2.08
41 | ATF1 (UniProt P18846) | 1.13 | 1.84 | -0.0555
42 | ATF6 (UniProt P18850) | -0.0284 | -0.0127 | -0.177
43 | ATF7IP (UniProt Q6VMQ6) | 0.974 | 0.0822 | -0.304
44 | ATG2B (UniProt Q96BY7) | -0.149 | 0.0605 | -0.0277
45 | ATG3 (UniProt Q9NT62) | 0.381 | 0.021 | -0.627
46 | ATG4A (UniProt Q8WYN0) | 0.167 | 0.0706 | -0.744
47 | ATG4B (UniProt Q9Y4P1) | 0.0217 | -0.419 | -0.73
48 | ATG4C (UniProt Q96DT6) | 0.0282 | 0.0873 | 0.0488

Row | Target | thermal stability z-score [1, 3] | thermal stability z-score ([1]; arsenate co-treatment: none) | thermal stability z-score [2]
49 | ATG5 (UniProt Q9H1Y0) | -0.255 | -0.342 | -0.959
50 | ATG7 (UniProt O95352) | -0.324 | 0.291 | 0.16
51 | ATG9A (UniProt Q7Z3C6) | -0.389 | -0.339 | 0.359
52 | ATG13 (UniProt O75143) | -0.00854 | 0.21 | 0.699
53 | ATG16L1 (UniProt Q676U5) | 0.346 | 0.282 | -0.533
54 | ATG101 (UniProt Q9BSB4) | -0.67 | -1.42 | 0.678
55 | ATIC (UniProt P31939) | 0.0982 | -0.0656 | -1.07
56 | ATL2 (UniProt Q8NHH9) | -0.223 | -0.0585 | 0.103
57 | ATL3 (UniProt Q6DD88) | -0.399 | -0.0961 | 0.731
58 | ATM (UniProt Q13315) | 0.678 | -0.445 | 0.00628
59 | ATN1 (UniProt P54259) | 0.566 | 0.784 | 0.759
60 | ATP1A1 (UniProt P05023) | 0.0243 | 0.186 | -0.742
61 | ATP1B1 (UniProt P05026) | 0.104 | -0.207 | -0.201
62 | ATP1B3 (UniProt P54709) | -0.0616 | -0.138 | -0.13
63 | ATP2A2 (UniProt P16615) | -1.16 | -0.667 | -0.0158
64 | ATP2B1 (UniProt P20020) | 0.446 | 0.697 | -0.146
65 | ATP2B2 (UniProt Q01814) | -0.146 | -0.424 | 0.106
66 | ATP2B4 (UniProt P23634) | -0.147 | -0.0358 | -1.05
67 | ATP2C1 (UniProt P98194) | -1.04 | -0.728 | -1.37
68 | ATP5A1 (UniProt P25705) | -0.144 | -0.0322 | -0.382
69 | ATP5B (UniProt P06576) | -0.424 | -0.332 | 0.0331
70 | ATP5C1 (UniProt P36542) | -0.36 | -0.306 | -0.252
71 | ATP5D (UniProt P30049) | 1.09 | 0.762 | 0.463
